{"source": "patent US20150189882A1", "about": "“ACTIVE INGREDIENT COMBINATIONS HAVING INSECTICIDAL AND ACARICIDAL PROPERTIES” (priority 2011, published 2015)", "key": {"[1]": {"test_system": "Tetranychus urticae (OP-resistant)", "test": "Tetranychus urticae - test; OP-resistant (TETRUR), bean plants sprayed", "format": "in vivo", "procedure": "To produce a suitable preparation of active compound, 1 part by weight of active compound is mixed with the stated amount of solvent and emulsifier, and the concentrate is diluted with emulsifier-containing water to the desired concentration Ammonium salt and/or penetration enhancer in a dosage of 1000 ppm are added to the desired concentration if necessary. To produce a suitable preparation of a biological suspension the cells or spores are diluted with emulsifier-containing water to the desired concentration.\nBean plants (Phaseolus vulgaris) which are heavily infested with all stages of the two-spotted spider mite (Tetranychus urticae) are treated by being sprayed with the preparation of the active compound of the desired concentration.\nAfter the specified period of time, mortality in % is determined 100% means that all the spider mites have been killed; 0% means that none of the spider mites have been killed."}, "[2]": {"test_system": "Phaedon cochleariae larvae", "test": "whole plant or invertebrate"}, "soybean (Glycine max) [3]": {"test_system": "soybean (Glycine max)", "test": "Shoot weight - soybean (seed treatment)", "format": "in vivo", "details": "0.3 g ai/kg seeds", "procedure": "Seeds of soybean (Glycine max) were treated by being mixed with the desired amount of active compound and spores and water. After drying, each seed was sown into a pot filled with loamy sand. The pots were placed in the greenhouse with conditions appropriate for good plant growth.\nAfter the specified period of time the plants were harvested and the shoot weight of the plants was determined. The weight is expressed in % whereupon the weight of the control is set 100%."}, "Spodoptera frugiperda": {"test_system": "Spodoptera frugiperda", "test": "Spodoptera frugiperda - spray application", "format": "in vivo", "details": "Spodoptera frugiperda; for mortality at 4 g/ha: 4 g ai/ha; for mortality at 20 g/ha: 20 g ai/ha; for mortality at 100 g/ha: 100 g ai/ha", "procedure": "To produce a suitable preparation of active compound, 1 part by weight of active compound is mixed with the stated amount of solvent and emulsifier, and the concentrate is diluted with emulsifier-containing water to the desired concentration. To produce a suitable preparation of a biological suspension the cells, viruses or spores are diluted with emulsifier-containing water to the desired concentration.\nCabbage (Brassica oleracea) leaf-discs are sprayed with a preparation of the active ingredient at the desired concentration. Once dry, the leaf discs are infested with larvae of the fall army worm (Spodoptera frugiperda).\nAfter the specified period of time, mortality in % is determined. 100% means that all the caterpillars have been killed; 0% means that none of the caterpillars have been killed. The mortality values thus determined are recalculated using the Colby-formula."}, "soybean (Glycine max) [4]": {"test_system": "soybean (Glycine max)", "test": "Seed treatment - germination test soybean", "format": "in vivo", "details": "0.15 g ai/kg seeds", "procedure": "Seeds of soybean (Glycine max) were treated by being mixed with the desired amount of active compound and spores and water. After drying, 25 seeds were sown into each pot filled with sandy loam.\nAfter the specified period of time the level of activity expressed in % was determined. The level of activity was calculated on the basis of the number of soybean plants which have successfully germinated."}, "Myzus persicae": {"test_system": "Myzus persicae", "test": "whole plant or invertebrate", "details": "in Brassica rapa, foliar"}, "[5]": {"test_system": "Tetranychus urticae (OP-resistant)", "test": "Tetranychus urticae - test (OP-resistant), French bean leaf discs", "format": "in vivo", "details": "Tetranychus urticae, foliar; for mortality at 4 g/ha: 4 g ai/ha", "procedure": "To produce a suitable preparation of active compound, 1 part by weight of active compound is mixed with the stated amount of solvent and emulsifier, and the concentrate is diluted with emulsifier-containing water to the desired concentration. To produce a suitable preparation of a biological suspension the cells or spores are diluted with emulsifier-containing water to the desired concentration.\nLeaf discs of French beans (Phaseolus vulgaris) infected with all instars of the Two-spotted spider mite (Tetranychus urticae), are sprayed with a preparation of the active ingredient at the desired concentration.\nAfter the specified period of time mortality in % is determined. 100% means that all spider mites have been killed; 0% means that none of the spider mites have been killed."}, "[6]": {"details": "read-out: Mortality in % after 2^d"}, "[7]": {"details": "read-out: Mortality in % after 6^d"}, "[8]": {"details": "read-out: Mortality in % after 1^d"}}, "note": "Like-named read-outs stand apart in the source and are kept apart here.", "data": [{"smiles": "Cc1cc(F)c(-n2nc(C(F)(F)F)nc2N)cc1[S+]([O-])CC(F)(F)F", "note": "(racemic) [Compound (I)]", "values": [{"measurement": "mortality at 0.8 ppm", "setting": "[1]; read-out: Mortality in % after 3^d", "result": 40, "unit": "%"}, {"measurement": "mortality at 0.8 ppm", "setting": "[1]; read-out: Mortality in % after 5^d", "result": 40, "unit": "%"}, {"measurement": "mortality at 0.8 g/ha", "setting": "[2]; [6]", "result": 0, "unit": "%"}, {"measurement": "mortality at 4 g/ha", "setting": "[2]; [6]", "result": 0, "unit": "%"}, {"measurement": "mortality at 20 g/ha", "setting": "[2]; [6]", "result": 0, "unit": "%"}, {"measurement": "mortality at 100 g/ha", "setting": "[2]; [6]", "result": 0, "unit": "%"}, {"measurement": "mortality at 4 g/ha", "setting": "[2]; [7]", "result": 0, "unit": "%"}, {"measurement": "mortality at 20 g/ha", "setting": "[2]; [7]", "result": 0, "unit": "%"}, {"measurement": "mortality at 100 g/ha", "setting": "[2]; [7]", "result": 0, "unit": "%"}, {"measurement": "Shoot weight after 21 days control was set 100%", "setting": "soybean (Glycine max) [3]", "result": 98, "unit": "%"}, {"measurement": "mortality at 0.8 g/ha", "setting": "Spodoptera frugiperda; 0.8 g ai/ha, read-out: Mortality in % after 6^d", "result": 0, "unit": "%"}, {"measurement": "mortality at 4 g/ha", "setting": "Spodoptera frugiperda; [6]", "result": 0, "unit": "%"}, {"measurement": "mortality at 4 g/ha", "setting": "Spodoptera frugiperda; [7]", "result": 0, "unit": "%"}, {"measurement": "mortality at 20 g/ha", "setting": "Spodoptera frugiperda; [6]", "result": 0, "unit": "%"}, {"measurement": "mortality at 20 g/ha", "setting": "Spodoptera frugiperda; [7]", "result": 0, "unit": "%"}, {"measurement": "mortality at 100 g/ha", "setting": "Spodoptera frugiperda; [6]", "result": 0, "unit": "%"}, {"measurement": "mortality at 100 g/ha", "setting": "Spodoptera frugiperda; [7]", "result": 0, "unit": "%"}, {"measurement": "% Germination after 3 days control was set 100%", "setting": "soybean (Glycine max) [4]", "result": 97, "unit": "%"}, {"measurement": "mortality at 4 g/ha", "setting": "Myzus persicae; [8]", "result": 0, "unit": "%"}, {"measurement": "mortality at 20 g/ha", "setting": "Myzus persicae; [8]", "result": 0, "unit": "%"}, {"measurement": "mortality at 100 g/ha", "setting": "Myzus persicae; [8]", "result": 0, "unit": "%"}, {"measurement": "mortality at 4 g/ha", "setting": "Myzus persicae; [7]", "result": 0, "unit": "%"}, {"measurement": "mortality at 20 g/ha", "setting": "Myzus persicae; [7]", "result": 0, "unit": "%"}, {"measurement": "mortality at 100 g/ha", "setting": "Myzus persicae; [7]", "result": 0, "unit": "%"}, {"measurement": "mortality at 4 g/ha", "setting": "[5]; [6]", "result": 30, "unit": "%"}, {"measurement": "mortality at 4 g/ha", "setting": "[5]; [7]", "result": 30, "unit": "%"}, {"measurement": "mortality at 20 g/ha", "setting": "[5]; 20 g ai/ha, read-out: Mortality in % after 2^d", "result": 80, "unit": "%"}]}]}
